Data on 14 molecules can be found in patent US6069132A, “Phosphazole compounds” (priority 1997, dated 2000).

In general, IC50 refers to the concentration needed to halve the response being measured.

Data set [1] deals with TNFα. The data set is described as follows: Inhibition of TNFα production in LPS-stimulated THP-1 cells (ELISA). The class given is cell-based, human. The settings on record: for IC50: Homo sapiens, Table 2, LPS-stimulated THP-1, 6 h post-stimulation. As for the experimental part: (§1) Cell line. THP-1 cells (human monocyte) were maintained in RPMI 1640 medium containing 25 mM Hepes buffer, 2 mM L-glutamine, 50 units of penicillin per mL, 50 μg of streptomycin sulfate per mL, and 10% heat-inactivated fetal bovine serum (FBS) in a humidified incubator containing 5% CO2. The cells were split 1:4 weekly as recommended by the American Type Culture Collection (ATCC).
(§2) TNFα assay. Varying concentrations of the test compound or control compound were added to THP-1 cells plated at a density of 1×10^6cells/mL in 600 μL of 10% RPMI in a 48 well plate. After one hour the cells were stimulated with 0.5 μg of lipopolysaccharide (LPS; Sigma, lot number 43H40491) per mL. Six hours post-stimulation supernatants were collected and assayed for TNFα or IL-1β production using a commercially available cytokine detection ELISA (Enzyme Linked Immunosorbent Assay) kit according to the suppliers instructions. A suitable assay kit may be obtained from Biosource, or R and D systems. A novel xanthine analog, HWA-3138, having the structure (as shown below) was used as the control compound (30) in this study to monitor the response of the THP-l cells. Xanthine analogs are known inhibitors of TNFα but not IL-1β. In the following experiments compound HWA-3138 was used as a positive control. [drawing 58]
Time of Addition. Varying concentrations of test or control compounds were added to THP-1 cells (1×10^6 cells/mL) at different time points post-stimulation using 0.5 μg of LPS (Sigma, lot number 43H40491) per mL in 300 μL of 10% RPMI in a 48 well plate. Six hours post-stimulationsupernatants were collected and assayed for TNFα or IL-1β production using a Biosource cytokine detection ELISA (Enzyme Linked Immunosorbent Assay) kit according to the supplier's instructions.
The membrane bound TNFα was separated from the free TNFα in the culture medium at 6 hours post-LPS stimulation as follows: The corresponding cells were centrifuged at 3500 rpm (~1,000×g) for 6 min. The supernatants were removed and the cell pellets were then resuspended in 200 μL of 0.25 mM Tris-HCl (pH 7.4). The cell associated TNFα was prepared by freezing the cell suspension in dry ice/ethanol and thawing at 37° C. three times with Vortexing in-between freeze-thaw cycles. Each cycle was 4-5 min apart.
To determine the long-term effects of phosphazole compound T70241 on TNFα production after a single treatment, THP-1 cells were pre-incubated with T70241, washed and resuspended in drug free medium. The xanthine analog HWA-3138 was used as a control.
A general note: In an ELISA, binding on a coated surface is turned into a signal by an enzyme label.

The subject of the next data set is IL-1β. The data set is described as follows: Inhibition of IL-1β production in LPS-stimulated THP-1 cells (ELISA). The class given is cell-based, human. The settings on record: for IC50: Homo sapiens, Table 2, LPS-stimulated THP-1, 6 h post-stimulation, read-out: IC50 IL-1β in THP-1 cells. As for the experimental part:
as §1
as §2, with “58] […]” for “58]”
THP-1 cells were cultured and IL-1β inhibition assays were conducted as described for TNFα in Example 46, except a commercially available IL-1β assay kit, obtained from R and D Systems, Minneapolis, Minn., was used instead of the TNFα kit.
With reference now to FIG. 8, for each concentration of T70241 tested, the membrane bound IL-1β was separated from the IL-1β found free in the culture medium at 6 hours post-LPS stimulation as described in Example 46 for TNFα, and the percent inhibition of each fraction was graphed.

A short description of data set [2]: Cytotoxicity on growing THP-1 cells (MTS assay). The data set is classed as cell-based, human. Conditions: human, thp-1 cells; Table 2; drug dose required to inhibit logphase growing cells by 50%; read-out: TC50 Growing THP-1. The method, then: Cytotoxicity Analysis. The cytotoxicity of the compounds were assayed using the CellTiter 96™ Aqueous Non-Radioactive Cell Proliferation (MTS) Assay kit obtained from Promega (Madison, Wis.) following the instructions provided by the supplier. The viable cell number was determined by trypan blue staining and cells (THP-1) were resuspended in PRMI supplemented with 10% FBS (GIBCO). Eighty microliters of cell suspension (1.7×10^4cells/well) was dispensed onto a 96-well microtiter plates. At this time 20 μL of drug (or control) was added to appropriate wells. Each concentration was assayed in quadruplicate. The plates were incubated at 37° C. in a humidified 5% CO2 atmosphere for 4 days and MTS assay […] for each concentration and the data obtained was used to calculate TC50 (the concentration of the compound necessary to inhibit the cell growth by 50%) for each compound.

Data set [3] is described as follows: Cytotoxicity on growing MRC-5 cells (MTS). Conditions: human, mrc-5 cells; Table 4; 50% inhibition of logphase growing cells; read-out: TC50 Growing MRC-5. The class given is cell-based, human. The method, then:
(§3) Cell Culture. Vero (African Green Monkey kidney cells) and MRC-5 (diploid Human Embryonic Lung fibroblasts) cells were obtained from the American Type Culture Collection (ATCC) and were grown in minimal essential medium (MEM) with Earl's salts and glutamine (GIBCO BRL, Life Technologies, Inc.) with 10% heat inactivated fetal bovine serum (GIBCO BRL) and penicillin (100 μg/mL)/streptomycin (100 μg/mL).
(§4) Cytotoxicity Analysis. The cytotoxicity of the compound was assayed using few the CellTiter 96™ Aqueous Non-Radioactive Cell Proliferation (MTS) Assay (Promega). Briefly, viable cell number was determined by trypan blue staining and cells (MRC-5 and Vero) were resuspended in minimal essential medium (MEM) supplemented with 10% FBS (GIBCO). Eighty microliters of cell suspension (1.7×10^4 cells/well) was dispensed onto a 96-well microtiter plates. At this time 20 μL of drug (or control) was added to appropriate wells. Each concentration was assayed in quadruplicate. The plates were incubated at 37° C. in a humidified 5% CO2 atmosphere for 4 days and MTS assay was performed according to the manufacturer's instructions. The average absorbence of the sample was graphed for each concentration and the data obtained was used to calculate TC50 (the concentration necessary to give one-half maximum growth) for each compound.

A short description of data set [4]: Cytotoxicity on growing Vero cells (MTS). The data set is classed as cell-based. The settings on record: african green monkey, Table 4, 50% inhibition of logphase growing cells, read-out: TC50 Growing Vero. As for the experimental part: as §3, §4
In another data set the test system is HSV-2. The data set is described as follows: HSV-2 CPE assay in Vero cells. The data set is classed as cell-based. Conditions: Human alphaherpesvirus 2, Vero.
A short description of data set [5]: Cytotoxicity on static MRC-5 cells. Conditions: human, Table 4, 50% cell death (static cells), read-out: TC50 Static MRC-5. The class given is cell-based. The method, then: as §3, §4
In the next data set the test system is HSV-1. The data set is described as follows: HSV-1 CPE assay in Vero cells. The class given is cell-based. Conditions: Human alphaherpesvirus 1, Vero.
Data set [6] in a line: Cytotoxicity on static Vero cells. The class given is cell-based. Conditions: african green monkey, Table 4, 50% cell death (static cells), read-out: TC50 Static Vero. The method, then: as §3, §4
In the next data set the test system is HCMV (Town strain). The data set is described as follows: HCMV plaque reduction (CPE) assay in MRC-5 cells. Conditions: Human betaherpesvirus 5, MRC5; Table 4; read-out: IC50 HCMV. The data set is classed as cell-based, human cytomegalovirus. As for the experimental part: The adenine analog phosphazole (compound T70241) was assayed for antiviral activity using a HCMV plaque reduction assay, in accordance with known methods such as that described in U.S. Pat. No. 5,446,045.
as §3
CMV Cytopathic Effect (CPE) Assay. Assays were performed essentially as described by Lewis et al. (111), which report is incorporated herein by reference. MRC-5 cells (100,000 cells/well) were seeded in 24-well plates overnight. Medium was then removed and wells were rinsed once with 250 μL of 2% FCS-MEM before adding 40-50 pfu of HCMV (Town strain) to each well. After 2 hours of virus adsorption, the medium was removed and the cells were rinsed once with 2% FCS-MEM. Varying concentrations of the phosphazole compound in the culture medium (1 mL) was then added to appropriate wells and plates were incubated for 5-6 days at 37° C. in a humidified 5% CO2 atmosphere. Each concentration was tested in duplicate wells.
The extent of the plaque reduction was quantitated by removing the media and adding 200 μL of 0.1% crystal violet in 20% methanol to all wells. The crystal violet was then removed after 10 min staining at room temperature by rinsing in the sink with tap water and the plates dried overnight. The plaques were then counted using a Nikon inverted microscope.

The subject of data set [7] is TNFα. The settings on record: by inhibition of PDE activity; cited from earlier work.
The test system of a further data set is HCMV. The settings on record: cited from earlier work.

Converted amounts (≈) assume the structure as drawn.

Turning to `Nc1ncnc2pcn([C@H]3C[C@H](O)[C@@H](CO)O3)c12` (stereo partly drawn) [T70265, 7-Amino-1-(2-deoxy-β-D-eythro-pentofuranosyl)-1,3-azaphospholo[4,5-d]pyrimidine], the IC50 in the data set on TNFα [1] is 26.2 µg/mL (≈ 97.6 µM); in the data set with IL-1β, more than 100 µg/mL. For the same molecule, the CC50 at 96 h in data set [2] was 105 µg/mL (≈ 390 µM).

Regarding `Nc1nc2c(ncn2COCCO)c(=O)[nH]1` [ACV, acyclovir, reference compound], the CC50 at 96 h in data set [3], in data set [4], in data set [5] and in [6] was more than 250 µg/mL throughout. In addition, the results for the IC50 in the data set on HSV-2 (Table 4) and with HSV-1 (Table 4) were 0.74 µg/mL (≈ 3.29 µM) and 0.1 µg/mL (≈ 0.444 µM), respectively.

As to `O=c1[nH]c(=O)c2[nH]cpc2[nH]1` (centres unmarked) [T70270, 1,3-Azaphospholo[4,5-d]pyrimidine-5,7(1H, 4H,6H) -dione], the IC50 was 239 µg/mL (≈ 1410 µM) in the data set on TNFα [1] and more than 250 µg/mL in the data set on IL-1β.

`Nc1ncnc2pcn(COCCO)c12` (centres unmarked) [T70268, 7-Amino-1-[(2-hydroxyethoxy)methyl]-1,3-azaphospholo-[4,5-d]pyrimidine]: the CC50 at 96 h in [3], in [4], in [5] and in data set [6] was more than 50 µg/mL in each case. The IC50 with TNFα [1] was more than 100 µg/mL; in the data set with HSV-2 (Table 4), more than 50 µg/mL; with HSV-1 (Table 4) it was more than 50 µg/mL; in the data set with IL-1β, more than 100 µg/mL; in the data set with HCMV (Town strain), more than 50 µg/mL.

For the molecule `CC(=O)CCCCn1c(=O)c2c(ncn2C)n(C)c1=O` [pentoxifylline], in the data set with TNFα [7], the “suppression of TNFα production” value is recorded as “suppression of TNFα production”.

In the case of `Nc1ncnc2c1ccn2[C@@H]1O[C@H](CO)[C@@H](O)[C@@H]1F` [arafluoro-tubercidin], the “activity against HCMV” value in the data set with HCMV was “selective activity against HCMV”.

For the molecule `N#Cc1cn([C@@H]2O[C@H](CO)[C@@H](O)[C@@H]2O)c2ncnc(N)c12` [ara-toyocamycin], in the data set on HCMV, the “activity against HCMV” value is “selective activity against HCMV”.

Consider `O=c1[nH]cnc2pc[nH]c12` (centres unmarked) [T70256, 1,3-azaphospholo[4,5-d]pyrimidin-7(1H,6H)-one], for which the values for the half-maximal inhibitory concentration (IC50) in the data set on TNFα [1] and in the data set with IL-1β were 168 µg/mL (≈ 1100 µM) and 170 µg/mL (≈ 1110 µM), respectively.

As to `Nc1ncnc2pcn(COC(CO)CO)c12` (centres unmarked) [T70269, 7-Amino-1-[(1,3-dihydroxy-2-propoxy)methyl]-1,3-azaphospholo [4,5-d]pyrimidine], the CC50 at 96 h in [3] is more than 50 µg/mL; in [4], 41.4 µg/mL (≈ 162 µM); in [5], more than 50 µg/mL; in data set [6] it was more than 50 µg/mL. The IC50 with TNFα [1] is more than 100 µg/mL; with HSV-2, 27.8 µg/mL (≈ 108 µM); in the data set on HSV-1, 2.75 µg/mL (≈ 10.7 µM); in the data set on IL-1β, more than 100 µg/mL; in the data set on HCMV (Town strain), 26.1 µg/mL (≈ 102 µM).

Turning to `Nc1ncnc2pcn([C@@H]3O[C@H](CO)[C@@H](O)[C@H]3O)c12` (stereo partly drawn) [T70264, 7-Amino-1-(β-D-ribofuranosyl)-1,3-azaphospholo-[4,5-d]pyrimidine], the results for the IC50 in the data set on TNFα [1] and with IL-1β were 126 µg/mL (≈ 444 µM) and more than 100 µg/mL, respectively. Further, the CC50 at 96 h in [2] was 118 µg/mL (≈ 413 µM).

Take `Nc1ncnc2nc[nH]c12` [Adenine, reference compound]: the 50% inhibitory concentration (IC50) in the data set on TNFα [1] and in the data set on IL-1β was more than 250 µg/mL throughout.

In the case of `Cn1c(=O)c2c(pcn2C)n(C)c1=O` (centres unmarked) [T70271, 1,4,6-Trimethyl-1,3-azaphospholo[4,5-d]pyrimidine-5,7-dione], the half-maximal inhibitory concentration (IC50) is 37.3 µg/mL (≈ 177 µM) with TNFα [1] and more than 250 µg/mL in the data set with IL-1β.

As to `NC(=O)c1cn([C@H]2C[C@H](O)[C@@H](CO)O2)c2ncnc(N)c12` [2'-deoxysangivamycin], in the data set with HCMV, the “activity against HCMV” value is “selective activity against HCMV”.

Regarding `Cn1c(=O)n(CCCCC(C)(C)O)c(=O)c2nc[nH]c21` [HWA-3138, reference compound], the “inhibition of TNFα production” value in the data set on TNFα [1] (10 and 100 μg/mL, THP-1, 6 h post-stimulation (FIG. 2)) was “no inhibition”. Moreover, the IC50 in the data set with TNFα [1] is 255 µg/mL (≈ 908 µM); with IL-1β, more than 500 µg/mL. The “inhibition of IL-1β production” value in the data set on IL-1β (10-250 μg/mL, THP-1 (FIG. 6)) is “does not inhibit IL-1β production”. In data set [2], the CC50 at 96 h worked out at 316 µg/mL (≈ 1130 µM).
